Results as given in the supplement of paper PMC10307832.

How the values were obtained:
Test in all cases: relative viability (nuclei count vs DMSO), 5 days (fraction); higher = more cells survive
201T = tested on: 201T
In short: (§1)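 Nuclei were stained with Hoechst during a one-step fixation (final 0.05% Triton X-100, 1% formaldehyde, 1 ug/ml Hoechst) carried out 5 days after dosing, then counted on 4× images. The cells, lung cancer lines in 1536-well plates, had been dosed by pin tool the day after seeding with one drug alone or a fixed anchor-drug dose plus five library-drug doses (not always all listed) in √10 steps. Relative viability is the nuclei count in treated wells divided by that in vehicle wells, and each value is the median of duplicate plates.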

CAL-12T = tested on: CAL-12T
In short: as §1

COR-L 105 = tested on: COR-L 105
In short: as §1

H3255 = tested on: H3255
In short: as §1

HARA = tested on: HARA
In short: as §1

HCC-15 = tested on: HCC-15
In short: as §1

HCC-827 = tested on: HCC-827
In short: as §1

LCLC-97TM1 = tested on: LCLC-97TM1
In short: as §1

LU99A = tested on: LU99A
In short: as §1

NCI-H1395 = tested on: NCI-H1395
In short: as §1

NCI-H1651 = tested on: NCI-H1651
In short: as §1

NCI-H1792 = tested on: NCI-H1792
In short: as §1

NCI-H2009 = tested on: NCI-H2009
In short: as §1

NCI-H2087 = tested on: NCI-H2087
In short: as §1

NCI-H2170 = tested on: NCI-H2170
In short: as §1

NCI-H2228 = tested on: NCI-H2228
In short: as §1

NCI-H23 = tested on: NCI-H23
In short: as §1

NCI-H2405 = tested on: NCI-H2405
In short: as §1

NCI-H650 = tested on: NCI-H650
In short: as §1

NCI-H661 = tested on: NCI-H661
In short: as §1

PC-3 [JPC-3] = tested on: PC-3 [JPC-3]
In short: as §1

SK-MES-1 = tested on: SK-MES-1
In short: as §1

UMC-11 = tested on: UMC-11
In short: as §1

Compound: C=C1C(=O)O[C@@H](CCCCCCCC)[C@@H]1C(=O)O [C-75] + CC(=O)Nc1cccc(-n2c(=O)n(C3CC3)c(=O)c3c(Nc4ccc(I)cc4F)n(C)c(=O)c(C)c32)c1 [Trametinib] (partner 0.02 µM)
- relative viability (201T; first compound 0.08 µM): 0.716
- relative viability (201T; first compound 0.253 µM): 0.824
- relative viability (201T; first compound 0.8 µM): 0.731
- relative viability (201T; first compound 2.53 µM): 0.692
- relative viability (201T; first compound 8 µM): 0.763
- relative viability (CAL-12T; first compound 0.08 µM): 0.373
- relative viability (CAL-12T; first compound 0.253 µM): 0.455
- relative viability (CAL-12T; first compound 0.8 µM): 0.31
- relative viability (CAL-12T; first compound 2.53 µM): 0.301
- relative viability (CAL-12T; first compound 8 µM): 0.313
- relative viability (COR-L 105; first compound 0.08 µM): 0.425
- relative viability (COR-L 105; first compound 0.253 µM): 0.458
- relative viability (COR-L 105; first compound 0.8 µM): 0.428
- relative viability (COR-L 105; first compound 2.53 µM): 0.427
- relative viability (COR-L 105; first compound 8 µM): 0.497
- relative viability (H3255; first compound 0.08 µM): 0.66
- relative viability (H3255; first compound 0.253 µM): 0.613
- relative viability (H3255; first compound 0.8 µM): 0.647
- relative viability (H3255; first compound 2.53 µM): 0.543
- relative viability (H3255; first compound 8 µM): 0.666
- relative viability (HARA; first compound 0.08 µM): 0.662
- relative viability (HARA; first compound 0.253 µM): 0.931
- relative viability (HARA; first compound 0.8 µM): 0.766
- relative viability (HARA; first compound 2.53 µM): 0.587
- relative viability (HARA; first compound 8 µM): 0.646
- relative viability (HCC-15; first compound 0.08 µM): 0.387
- relative viability (HCC-15; first compound 0.253 µM): 0.366
- relative viability (HCC-15; first compound 0.8 µM): 0.375
- relative viability (HCC-15; first compound 2.53 µM): 0.33
- relative viability (HCC-15; first compound 8 µM): 0.426
- relative viability (HCC-827; first compound 0.253 µM): 0.786
- relative viability (HCC-827; first compound 0.8 µM): 0.558
- relative viability (HCC-827; first compound 8 µM): 0.55
- relative viability (LCLC-97TM1; first compound 0.08 µM): 0.211
- relative viability (LCLC-97TM1; first compound 0.253 µM): 0.162
- relative viability (LCLC-97TM1; first compound 0.8 µM): 0.193
- relative viability (LCLC-97TM1; first compound 2.53 µM): 0.175
- relative viability (LCLC-97TM1; first compound 8 µM): 0.177
- relative viability (LU99A; first compound 0.08 µM): 0.526
- relative viability (LU99A; first compound 0.253 µM): 0.528
- relative viability (LU99A; first compound 0.8 µM): 0.475
- relative viability (LU99A; first compound 2.53 µM): 0.562
- relative viability (LU99A; first compound 8 µM): 0.527
- relative viability (NCI-H1395; first compound 0.08 µM): 0.973
- relative viability (NCI-H1395; first compound 0.253 µM): 1.05
- relative viability (NCI-H1395; first compound 2.53 µM): 1.03
- relative viability (NCI-H1395; first compound 8 µM): 0.933
- relative viability (NCI-H1651; first compound 0.08 µM): 0.815
- relative viability (NCI-H1651; first compound 0.253 µM): 0.802
- relative viability (NCI-H1651; first compound 0.8 µM): 0.862
- relative viability (NCI-H1651; first compound 2.53 µM): 0.515
- relative viability (NCI-H1651; first compound 8 µM): 0.892
- relative viability (NCI-H1792; first compound 0.08 µM): 0.474
- relative viability (NCI-H1792; first compound 0.253 µM): 0.574
- relative viability (NCI-H1792; first compound 0.8 µM): 0.438
- relative viability (NCI-H1792; first compound 2.53 µM): 0.341
- relative viability (NCI-H1792; first compound 8 µM): 0.452
- relative viability (NCI-H2009; first compound 0.08 µM): 0.277
- relative viability (NCI-H2009; first compound 0.253 µM): 0.249
- relative viability (NCI-H2009; first compound 0.8 µM): 0.282
- relative viability (NCI-H2009; first compound 2.53 µM): 0.262
- relative viability (NCI-H2009; first compound 8 µM): 0.332
- relative viability (NCI-H2087; first compound 0.08 µM): 0.247
- relative viability (NCI-H2087; first compound 0.253 µM): 0.24
- relative viability (NCI-H2087; first compound 0.8 µM): 0.179
- relative viability (NCI-H2087; first compound 2.53 µM): 0.16
- relative viability (NCI-H2087; first compound 8 µM): 0.212
- relative viability (NCI-H2170; first compound 0.08 µM): 0.962
- relative viability (NCI-H2170; first compound 0.253 µM): 0.924
- relative viability (NCI-H2170; first compound 0.8 µM): 0.941
- relative viability (NCI-H2170; first compound 2.53 µM): 0.849
- relative viability (NCI-H2170; first compound 8 µM): 0.85
- relative viability (NCI-H2228; first compound 0.08 µM): 0.666
- relative viability (NCI-H2228; first compound 0.253 µM): 0.673
- relative viability (NCI-H2228; first compound 0.8 µM): 0.444
- relative viability (NCI-H2228; first compound 2.53 µM): 0.372
- relative viability (NCI-H2228; first compound 8 µM): 0.519
- relative viability (NCI-H23; first compound 0.08 µM): 0.361
- relative viability (NCI-H23; first compound 0.253 µM): 0.436
- relative viability (NCI-H23; first compound 0.8 µM): 0.343
- relative viability (NCI-H23; first compound 2.53 µM): 0.291
- relative viability (NCI-H23; first compound 8 µM): 0.321
- relative viability (NCI-H2405; first compound 0.08 µM): 0.635
- relative viability (NCI-H2405; first compound 0.253 µM): 0.47
- relative viability (NCI-H2405; first compound 0.8 µM): 0.691
- relative viability (NCI-H2405; first compound 2.53 µM): 0.575
- relative viability (NCI-H2405; first compound 8 µM): 0.784
- relative viability (NCI-H650; first compound 0.08 µM): 0.965
- relative viability (NCI-H650; first compound 0.253 µM): 0.961
- relative viability (NCI-H650; first compound 0.8 µM): 0.967
- relative viability (NCI-H650; first compound 2.53 µM): 0.768
- relative viability (NCI-H650; first compound 8 µM): 1
- relative viability (NCI-H661; first compound 0.08 µM): 0.524
- relative viability (NCI-H661; first compound 0.253 µM): 0.612
- relative viability (NCI-H661; first compound 0.8 µM): 0.516
- relative viability (NCI-H661; first compound 2.53 µM): 0.429
- relative viability (NCI-H661; first compound 8 µM): 0.458
- relative viability (PC-3 [JPC-3]; first compound 0.08 µM): 0.744
- relative viability (PC-3 [JPC-3]; first compound 0.253 µM): 0.651
- relative viability (PC-3 [JPC-3]; first compound 0.8 µM): 0.657
- relative viability (PC-3 [JPC-3]; first compound 2.53 µM): 0.64
- relative viability (PC-3 [JPC-3]; first compound 8 µM): 0.915
- relative viability (SK-MES-1; first compound 0.08 µM): 0.538
- relative viability (SK-MES-1; first compound 0.253 µM): 0.542
- relative viability (SK-MES-1; first compound 0.8 µM): 0.48
- relative viability (SK-MES-1; first compound 2.53 µM): 0.478
- relative viability (SK-MES-1; first compound 8 µM): 0.438
- relative viability (UMC-11; first compound 0.08 µM): 0.723
- relative viability (UMC-11; first compound 0.253 µM): 0.841
- relative viability (UMC-11; first compound 0.8 µM): 0.659
- relative viability (UMC-11; first compound 2.53 µM): 0.581
- relative viability (UMC-11; first compound 8 µM): 0.526
